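At the GI50, growth is halved. TGI: total growth inhibition.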
Assays:
Assay in all cases: inhibition of tumour cell growth, NCI panel, 384-well format
[1] = system: SK-MEL-2 melanoma
[2] = system: SNB-19 CNS
[3] = system: SN12C renal
[4] = system: HOP-92 NSCLC
[5] = system: SK-MEL-28 melanoma
[6] = system: MDA-MB-435 melanoma
[7] = system: HL-60(TB) leukemia
[8] = system: DU-145 prostate
[9] = system: A549 NSCLC
[10] = system: CAKI-1 renal
[11] = system: HCT-116 colon
[12] = system: HT29 colon
[13] = system: KM12 colon
[14] = system: 786-0 renal
[15] = system: MALME-3M melanoma
[16] = system: UACC-257 melanoma
[17] = system: NCI-H322M lung
[18] = system: OVCAR-4 ovarian
[19] = system: HS 578T breast
[20] = system: MOLT-4 leukemia
[21] = system: M14 melanoma
[22] = system: SF-539 CNS
[23] = system: NCI-H522 lung
[24] = system: OVCAR-3 ovarian
[25] = system: NCI-H23 lung
[26] = system: A498 renal
[27] = system: OVCAR-5 ovarian
[28] = system: MDA-MB-468 breast
[29] = system: UO-31 renal
[30] = system: SW-620 colon
[31] = system: K-562 leukemia
[32] = system: RXF 393 renal
[33] = system: NCI-H460 NSCLC
[34] = system: NCI-H226 lung
[35] = system: HOP-62 NSCLC
[36] = system: UACC-62 melanoma
[37] = system: T-47D breast
[38] = system: TK-10 renal
[39] = system: PC-3 prostate
[40] = system: OVCAR-8 ovarian
[41] = system: SK-MEL-5 melanoma
[42] = system: BT-549 breast
[43] = system: U251 glioblastoma
[44] = system: SF-295 CNS
[45] = system: ACHN renal
[46] = system: IGROV1 ovarian
[47] = system: MDA-MB-231 breast
[48] = system: SNB-75 CNS
[49] = system: EKVX NSCLC
[50] = system: SR leukemia
[51] = system: COLO 205 colon
[52] = system: SK-OV-3 ovarian
[53] = system: MCF7 breast
[54] = system: SF-268 CNS
[55] = system: HCT-15 colon

Cn1cc(-c2ccc3c(c2)ncn3-c2cc(NS(=O)(=O)C3CC3)cc(-c3ccc(F)cc3F)c2)cn1
GI50 [1]: 2.78 µM
TGI [1]: 7.22 µM
GI50 [2]: 4.05 µM
TGI [2]: > 100 µM
GI50 [3]: 2.51 µM
TGI [3]: > 100 µM
GI50 [4]: 2.03 µM
TGI [4]: 12.4 µM
GI50 [5]: 4.04 µM
TGI [5]: 19.5 µM
GI50 [6]: 4.37 µM
TGI [6]: 72.8 µM
GI50 [7]: 3.2 µM
TGI [7]: 6.8 µM
GI50 [8]: 4.9 µM
TGI [8]: 40.2 µM
GI50 [9]: 3.42 µM
TGI [9]: > 100 µM
GI50 [10]: 2.16 µM
TGI [10]: > 100 µM
GI50 [11]: 2.79 µM
TGI [11]: 12.3 µM
GI50 [12]: 3.01 µM
TGI [12]: 10.2 µM
GI50 [13]: 3.4 µM
TGI [13]: 13.2 µM
GI50 [14]: 1.99 µM
TGI [14]: 4.95 µM
GI50 [15]: 4.55 µM
TGI [15]: 15.2 µM
GI50 [16]: 3.02 µM
TGI [16]: 10.3 µM
GI50 [17]: 3.3 µM
TGI [17]: 20.7 µM
GI50 [18]: 2.26 µM
TGI [18]: 37.6 µM
GI50 [19]: 0.575 µM
TGI [19]: 2.44 µM
GI50 [20]: 1.62 µM
TGI [20]: 3.09 µM
GI50 [21]: 4.6 µM
TGI [21]: 47.3 µM
GI50 [22]: 0.305 µM
TGI [22]: 2.05 µM
GI50 [23]: 1.8 µM
TGI [23]: 6.87 µM
GI50 [24]: 3.15 µM
TGI [24]: 11.4 µM
GI50 [25]: 2.51 µM
TGI [25]: 14.4 µM
GI50 [26]: 2.36 µM
TGI [26]: 6.03 µM
GI50 [27]: 4.31 µM
TGI [27]: 79.4 µM
GI50 [28]: 1.71 µM
TGI [28]: 6.44 µM
GI50 [29]: 1.73 µM
TGI [29]: 7.66 µM
GI50 [30]: 18 µM
TGI [30]: > 100 µM
GI50 [31]: 1.81 µM
TGI [31]: 3.65 µM
GI50 [32]: 0.183 µM
TGI [32]: 2.06 µM
GI50 [33]: 2.48 µM
TGI [33]: 13.7 µM
GI50 [34]: 0.344 µM
TGI [34]: 14.3 µM
GI50 [35]: 2.39 µM
TGI [35]: 10.8 µM
GI50 [36]: 6.3 µM
TGI [36]: 18.9 µM
GI50 [37]: 2.63 µM
TGI [37]: 13.7 µM
GI50 [38]: 2.87 µM
TGI [38]: 24.4 µM
GI50 [39]: 2.92 µM
TGI [39]: 9.54 µM
GI50 [40]: 4.79 µM
TGI [40]: 79.6 µM
GI50 [41]: 3.28 µM
TGI [41]: 15.7 µM
GI50 [42]: 1.03 µM
TGI [42]: 9.21 µM
GI50 [43]: 2.15 µM
TGI [43]: 12.3 µM
GI50 [44]: 1.69 µM
TGI [44]: 4.14 µM
GI50 [45]: 2.5 µM
TGI [45]: 13.2 µM
GI50 [46]: 2.02 µM
TGI [46]: 6.92 µM
GI50 [47]: 3.4 µM
TGI [47]: > 100 µM
GI50 [48]: 0.29 µM
TGI [48]: 3.53 µM
GI50 [49]: 2.82 µM
TGI [49]: 13.5 µM
GI50 [50]: 1.89 µM
TGI [50]: 3.7 µM
GI50 [51]: 11.7 µM
TGI [51]: 93.6 µM
GI50 [52]: 2.42 µM
TGI [52]: 10.8 µM
GI50 [53]: 2.07 µM
TGI [53]: 12.8 µM
GI50 [54]: 3.4 µM
TGI [54]: 61.3 µM
GI50 [55]: 4.25 µM
TGI [55]: 24 µM

— PubChem BioAssay (NCI)
